Laboratory results published in the supplement of paper PMC11451515.

Test system: NOMO1
Experiment: cell viability relative to DMSO control; higher = less cytotoxic
Details: 48 h
In short: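 Viability, reported as a per-plate percentage of DMSO wells with cell-free wells as background, came from CellTiter-Glo One luminescence. Reading took place after 48 h at 37°C. Before that, NOMO1 or SEM (500 cells/well) or P12-Ichikawa (1000 cells/well) leukemia cells, adapted for at least four passages in each medium, were seeded in 1536-well plates (5 μl) and pin-dosed with library compounds in DMSO, 47 μM to 0.79 nM over 11 threefold points.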

[1] = HPLM + 10% dialyzed FBS, 0.000781 µM
[2] = HPLM + 10% dialyzed FBS, 0.00234 µM
[3] = HPLM + 10% dialyzed FBS, 0.00702 µM
[4] = HPLM + 10% dialyzed FBS, 0.0211 µM
[5] = HPLM + 10% dialyzed FBS, 0.0632 µM
[6] = HPLM + 10% dialyzed FBS, 0.19 µM
[7] = HPLM + 10% dialyzed FBS, 0.569 µM
[8] = HPLM + 10% dialyzed FBS, 1.71 µM
[9] = HPLM + 10% dialyzed FBS, 5.12 µM
[10] = HPLM + 10% dialyzed FBS, 15.4 µM
[11] = HPLM + 10% dialyzed FBS, 46.1 µM
[12] = RPMI 5 mM glucose + 10% FBS, 0.000781 µM
[13] = RPMI 5 mM glucose + 10% FBS, 0.00234 µM
[14] = RPMI 5 mM glucose + 10% FBS, 0.00702 µM
[15] = RPMI 5 mM glucose + 10% FBS, 0.0211 µM
[16] = RPMI 5 mM glucose + 10% FBS, 0.0632 µM
[17] = RPMI 5 mM glucose + 10% FBS, 0.19 µM
[18] = RPMI 5 mM glucose + 10% FBS, 0.569 µM
[19] = RPMI 5 mM glucose + 10% FBS, 1.71 µM
[20] = RPMI 5 mM glucose + 10% FBS, 5.12 µM
[21] = RPMI 5 mM glucose + 10% FBS, 15.4 µM
[22] = RPMI 5 mM glucose + 10% FBS, 46.1 µM
[23] = RPMI 5 mM glucose + 10% dialyzed FBS, 0.000781 µM
[24] = RPMI 5 mM glucose + 10% dialyzed FBS, 0.00234 µM
[25] = RPMI 5 mM glucose + 10% dialyzed FBS, 0.00702 µM
[26] = RPMI 5 mM glucose + 10% dialyzed FBS, 0.0211 µM
[27] = RPMI 5 mM glucose + 10% dialyzed FBS, 0.0632 µM
[28] = RPMI 5 mM glucose + 10% dialyzed FBS, 0.19 µM
[29] = RPMI 5 mM glucose + 10% dialyzed FBS, 0.569 µM
[30] = RPMI 5 mM glucose + 10% dialyzed FBS, 1.71 µM
[31] = RPMI 5 mM glucose + 10% dialyzed FBS, 5.12 µM
[32] = RPMI 5 mM glucose + 10% dialyzed FBS, 15.4 µM
[33] = RPMI 5 mM glucose + 10% dialyzed FBS, 46.1 µM

| Compound | cell viability [1] [%] | cell viability [2] [%] | cell viability [3] [%] | cell viability [4] [%] | cell viability [5] [%] | cell viability [6] [%] | cell viability [7] [%] | cell viability [8] [%] | cell viability [9] [%] | cell viability [10] [%] | cell viability [11] [%] | cell viability [12] [%] | cell viability [13] [%] | cell viability [14] [%] | cell viability [15] [%] | cell viability [16] [%] | cell viability [17] [%] | cell viability [18] [%] | cell viability [19] [%] | cell viability [20] [%] | cell viability [21] [%] | cell viability [22] [%] | cell viability [23] [%] | cell viability [24] [%] | cell viability [25] [%] | cell viability [26] [%] | cell viability [27] [%] | cell viability [28] [%] | cell viability [29] [%] | cell viability [30] [%] | cell viability [31] [%] | cell viability [32] [%] | cell viability [33] [%] |
| --- | --- | --- | --- | --- | --- | --- | --- | --- | --- | --- | --- | --- | --- | --- | --- | --- | --- | --- | --- | --- | --- | --- | --- | --- | --- | --- | --- | --- | --- | --- | --- | --- | --- |
| O=NN(CCCl)C(=O)NCCCl | 89.1 | 107 | 99.1 | 116 | 128 | 113 | 127 | 101 | 106 | 127 | 109 | 84.4 | 99.3 | 102 | 104 | 118 | 116 | 107 | 120 | 110 | 110 | 101 | 91.4 | 94.5 | 109 | 112 | 101 | 98.9 | 108 | 109 | 102 | 109 | 97.9 |
| OC(=O)C1=CC=C(NC2=NC3=C(C\N=C(/C4=CC(=CC=C34)Cl)C5=C(F)C=CC=C5F)C=N2)C=C1 | 87.2 | 96.6 | 104 | 122 | 97.9 | 103 | 87.6 | 45.2 | 44 | 59.1 | 72 | 81.9 | 96.8 | 80 | 91.3 | 90.4 | 79.9 | 82.3 | 32.8 | 37.8 | 56.4 | 56.4 | 93.2 | 95.7 | 89.2 | 94.1 | 89.8 | 97.8 | 77.3 | 35 | 38.8 | 55.9 | 61.4 |
| CC(N[C@H]1C[C@@H]1c1ccccc1)c1ccc2c(c1)OCCO2 (stereo not given in full) |  |  |  |  |  |  |  |  |  |  |  | 105 | 117 | 116 | 106 | 103 | 102 | 113 | 112 | 114 | 98.7 | 109 | 115 | 124 | 115 | 126 | 119 | 114 | 126 | 123 | 110 | 118 | 111 |
| c1cncc(CN2CCC(n3ncc4c(N5CCOCC5)nc(-c5ccc6[nH]ccc6c5)nc43)CC2)c1 | 92.1 | 107 | 92.5 | 94.8 | 84.4 | 89.1 | 78.6 | 72.7 | 60.1 | 44 | 35 | 88.4 | 80.4 | 88.1 | 92.7 | 87.8 | 82.2 | 83.6 | 82.8 | 80.5 | 49.3 | 15.7 | 87.3 | 83.9 | 96.4 | 97.7 | 86.2 | 85.2 | 69.2 | 70.4 | 71.2 | 46.6 | 20 |
| Cc1c(CCOc2ccc(C(=O)O)cc2)c2cc(Cl)ccc2n1C(c1ccccc1)c1ccccc1 | 119 | 121 | 111 | 116 | 109 | 107 | 115 | 123 | 105 | 95 | 73.8 | 108 | 103 | 108 | 108 | 112 | 97.9 | 94.8 | 74.8 | 98.7 | 99.9 | 93.6 | 111 | 124 | 125 | 120 | 116 | 106 | 98.6 | 115 | 113 | 101 | 97.3 |
| CC\1=C(C(\N=C(/N1)C2=CC(=NC=C2)Cl)C3=C(F)C=C(Cl)C=C3)/C(=O)NC4=C(F)C=C5[NH]N=CC5=C4 (stereo not given) | 85.8 | 97.5 | 108 | 116 | 112 | 96.7 | 107 | 110 | 105 | 115 | 27 | 101 | 100 | 101 | 104 | 95.3 | 93.4 | 95.7 | 98.2 | 89 | 85.3 | 29.4 | 94.7 | 96.6 | 122 | 111 | 108 | 99.8 | 106 | 98.2 | 82.7 | 97.3 | 40.7 |
| CC(=O)O[C@H]1C(=O)[C@]2(C)[C@@H](O)C[C@H]3OC[C@@]3(OC(C)=O)C2[C@H](OC(=O)C4=CC=CC=C4)[C@]5(O)C[C@H](OC(=O)[C@H](O)[C@@H](NC(=O)C6=CC=CC=C6)C7=CC=CC=C7)\C(=C1/C5(C)C)C (stereo not given in full) | 74.6 | 34.7 | 39.5 | 41.3 | 39.6 | 31.7 | 33.1 | 36.6 | 35.5 | 29.1 | 33.1 | 124 | 27.4 | 23 | 25.4 | 25.4 | 22.5 | 23.2 | 23.9 | 23.1 | 23.2 | 19.6 | 106 | 32.5 | 25.2 | 31.5 | 24.8 | 26 | 29.7 | 31.4 | 29 | 27.1 | 20.3 |
